From PubChem BioAssay (NCI)
Where “and” joins values, the source holds several entries; their conditions need not be identical. Equal entries are not always repeated.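 Protocol summary: plate cells (96-well), add compound at 5 concentrations, incubate 48 h, interpolate endpoints linearly. Abbreviation: GI50, concentration required for 50% inhibition of growth. TGI: total growth inhibition.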

Key:
Experiment in all cases: NCI anticancer screen, dose series, 48 h
[1] = test system: ACHN renal
[2] = test system: RPMI-8226 leukemia
[3] = test system: SK-OV-3 ovarian
[4] = test system: BT-549 breast
[5] = test system: K-562 leukemia
[6] = test system: 786-0 renal
[7] = test system: SK-MEL-28 melanoma
[8] = test system: IGROV1 ovarian
[9] = test system: UO-31 renal
[10] = test system: MDA-MB-231 breast
[11] = test system: HCT-15 colon
[12] = test system: SR leukemia
[13] = test system: OVCAR-3 ovarian
[14] = test system: KM12 colon
[15] = test system: A549 NSCLC
[16] = test system: CAKI-1 renal
[17] = test system: COLO 205 colon
[18] = test system: HOP-62 NSCLC
[19] = test system: NCI-H522 lung
[20] = test system: SK-MEL-2 melanoma
[21] = test system: MDA-MB-435
[22] = test system: HCC-2998 colon
[23] = test system: OVCAR-4 ovarian
[24] = test system: SN12C renal
[25] = test system: CCRF-CEM leukemia
[26] = test system: SW-620 colon
[27] = test system: MALME-3M melanoma
[28] = test system: HCT-116 colon
[29] = test system: T-47D breast
[30] = test system: EKVX NSCLC
[31] = test system: HOP-92 NSCLC
[32] = test system: DU-145 prostate
[33] = test system: M14 melanoma
[34] = test system: NCI-H23 lung
[35] = test system: HT29 colon
[36] = test system: RXF 393 renal
[37] = test system: SF-295 CNS
[38] = test system: OVCAR-8 ovarian
[39] = test system: SNB-19 CNS
[40] = test system: HL-60(TB) leukemia
[41] = test system: UACC-257 melanoma
[42] = test system: SK-MEL-5 melanoma
[43] = test system: NCI-H460 lung
[44] = test system: SF-268 CNS
[45] = test system: MOLT-4 leukemia
[46] = test system: PC-3 prostate
[47] = test system: MDA-N
[48] = test system: LOX IMVI melanoma
[49] = test system: TK-10 renal
[50] = test system: SNB-75 CNS
[51] = test system: NCI/ADR-RES ovarian
[52] = test system: UACC-62 melanoma
[53] = test system: OVCAR-5 ovarian
[54] = test system: U251 CNS
[55] = test system: NCI-H226 lung
[56] = test system: MCF7 breast
[57] = test system: SF-539 CNS
[58] = test system: HS 578T breast
[59] = test system: A498 renal

## O=S(=O)(Nc1nc2ccccc2nc1N1CCCCCC1)c1ccccc1
[1]
  TGI: 86.7 µM
[2]
  TGI: > 100 µM
[3]
  TGI: 89.6 µM
[4]
  TGI: 50.1 µM
[5]
  TGI: > 100 µM
[6]
  TGI: > 100 µM
[7]
  TGI: > 100 µM
[8]
  TGI: > 100 µM
[9]
  TGI: 33.9 µM
[10]
  TGI: > 100 µM
[11]
  TGI: 45 µM
[12]
  TGI: > 100 µM
[13]
  TGI: 36.5 µM
[14]
  TGI: 52 µM
[15]
  TGI: > 100 µM
[16]
  TGI: > 100 µM
[17]
  TGI: > 100 µM
[18]
  TGI: 84.5 µM
[19]
  TGI: 57.1 µM
[20]
  TGI: 33.4 µM
[21]
  TGI: 64.6 µM
[22]
  TGI: 31.9 µM
[23]
  TGI: 36.4 µM
[24]
  TGI: > 100 µM
[25]
  TGI: > 100 µM
[26]
  TGI: 65.3 µM
[27]
  TGI: > 100 µM
[28]
  TGI: > 100 µM
[29]
  TGI: > 100 µM
[30]
  TGI: > 100 µM
[31]
  TGI: 37.4 µM
[32]
  TGI: > 100 µM
[33]
  TGI: 49.9 µM
[34]
  TGI: 44.2 µM
[35]
  TGI: > 100 µM
[36]
  TGI: 57.5 µM
[37]
  TGI: 70 µM
[38]
  TGI: > 100 µM
[39]
  TGI: > 100 µM
[40]
  TGI: 75.1 µM
[41]
  TGI: 99.2 µM
[42]
  TGI: 29.5 µM
[43]
  TGI: 33.5 µM
[44]
  TGI: > 100 µM
[45]
  TGI: 44.2 µM
[46]
  TGI: 77.4 µM
[47]
  TGI: > 100 µM
[48]
  TGI: > 100 µM
[49]
  TGI: 40 µM
[50]
  TGI: 86.1 µM
[51]
  TGI: > 100 µM
[52]
  TGI: 52.9 µM
[53]
  TGI: > 100 µM
[54]
  TGI: 48.8 µM
[55]
  TGI: > 100 µM
[56]
  TGI: > 100 µM
[57]
  TGI: 95.7 µM
[58]
  TGI: 83.9 µM

## Cc1nc2c(Br)cc(Br)cc2c(=O)n1-c1ccccc1NC1OC(CO)C(O)C(O)C1O (stereo unspecified)
[1]
  TGI: > 100 µM
[2]
  TGI: > 100 µM
[3]
  TGI: > 100 µM
[59]
  TGI: > 100 µM
[4]
  TGI: > 100 µM
[5]
  TGI: > 100 µM
[6]
  TGI: > 100 µM
[7]
  TGI: > 100 µM
[8]
  TGI: > 100 µM
[9]
  TGI: > 100 µM
[10]
  TGI: > 100 µM
[11]
  TGI: > 100 µM
[12]
  GI50: > 100 µM and 44.8 µM
  TGI: > 100 µM
[13]
  TGI: > 100 µM
[14]
  TGI: > 100 µM
[15]
  GI50: 27.8 µM and > 100 µM
  TGI: > 100 µM
[16]
  TGI: > 100 µM
[17]
  TGI: > 100 µM
[18]
  TGI: > 100 µM
[19]
  TGI: > 100 µM
[20]
  TGI: > 100 µM
[21]
  TGI: > 100 µM
[22]
  TGI: > 100 µM
[23]
  TGI: > 100 µM
[24]
  TGI: > 100 µM
[25]
  TGI: > 100 µM
[26]
  TGI: > 100 µM
[27]
  TGI: > 100 µM
[28]
  TGI: > 100 µM
[29]
  TGI: > 100 µM
[30]
  TGI: > 100 µM
[31]
  TGI: > 100 µM
[32]
  TGI: > 100 µM
[33]
  TGI: > 100 µM
[34]
  TGI: > 100 µM
[35]
  TGI: > 100 µM
[36]
  TGI: > 100 µM
[37]
  TGI: > 100 µM
[38]
  TGI: > 100 µM
[39]
  TGI: > 100 µM
[40]
  TGI: > 100 µM
[41]
  TGI: > 100 µM
[42]
  TGI: > 100 µM
[43]
  TGI: > 100 µM
[44]
  TGI: > 100 µM
[45]
  TGI: > 100 µM
[46]
  TGI: > 100 µM
[47]
  TGI: > 100 µM
[48]
  TGI: > 100 µM
[49]
  TGI: > 100 µM
[50]
  TGI: > 100 µM
[51]
  TGI: > 100 µM
[52]
  TGI: > 100 µM
[53]
  TGI: > 100 µM
[54]
  TGI: > 100 µM
[55]
  TGI: > 100 µM
[56]
  TGI: > 100 µM
[57]
  TGI: > 100 µM
[58]
  TGI: > 100 µM

## Cn1/c(=N\N=C2\C=C3CCCCC3(C)CC2)sc2ccccc21 (stereo unspecified)
[1]
  TGI: > 100 µM
[3]
  TGI: > 100 µM
[59]
  TGI: > 100 µM
[4]
  TGI: > 100 µM
[5]
  TGI: > 100 µM
[6]
  TGI: > 100 µM
[7]
  TGI: > 100 µM
[8]
  TGI: > 100 µM
[9]
  TGI: > 100 µM
[10]
  TGI: > 100 µM
[11]
  TGI: > 100 µM
[12]
  TGI: > 100 µM
[13]
  TGI: > 100 µM
[14]
  TGI: > 100 µM
[15]
  TGI: > 100 µM
[16]
  TGI: > 100 µM
[17]
  TGI: > 100 µM
[18]
  TGI: > 100 µM
[19]
  TGI: > 100 µM
[20]
  TGI: > 100 µM
[21]
  TGI: > 100 µM
[22]
  TGI: > 100 µM
[23]
  TGI: > 100 µM
[24]
  TGI: > 100 µM
[25]
  TGI: > 100 µM
[26]
  TGI: > 100 µM
[27]
  TGI: > 100 µM
[28]
  TGI: > 100 µM
[29]
  TGI: > 100 µM
[30]
  TGI: > 100 µM
[31]
  TGI: > 100 µM
[32]
  TGI: > 100 µM
[33]
  TGI: > 100 µM
[34]
  TGI: > 100 µM
[35]
  TGI: > 100 µM
[36]
  TGI: > 100 µM
[37]
  TGI: > 100 µM
[38]
  TGI: > 100 µM
[39]
  TGI: > 100 µM
[40]
  TGI: > 100 µM
[41]
  TGI: > 100 µM
[42]
  TGI: > 100 µM
[43]
  TGI: > 100 µM
[44]
  TGI: > 100 µM
[46]
  TGI: > 100 µM
[47]
  TGI: > 100 µM
[48]
  TGI: > 100 µM
[49]
  TGI: > 100 µM
[50]
  TGI: > 100 µM
[51]
  TGI: > 100 µM
[52]
  TGI: > 100 µM
[53]
  TGI: > 100 µM
[54]
  TGI: > 100 µM
[55]
  TGI: > 100 µM
[56]
  TGI: > 100 µM
[57]
  TGI: > 100 µM
[58]
  TGI: > 100 µM
